Measured values taken from PubChem BioAssay (NCI).
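96-well plates; 48 h exposure; 5 concentrations. Endpoints by linear interpolation between flanking doses. Not reached: highest tested concentration assigned. GI50: concentration for 50% inhibition of growth. TGI marks complete inhibition of growth.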

Columns and labels:
Assay in all cases: DTP human tumour cell line panel, 48 h
MDA-MB-435 = test system: MDA-MB-435
A549 NSCLC = test system: A549 NSCLC
SK-OV-3 ovarian = test system: SK-OV-3 ovarian
NCI-H23 lung = test system: NCI-H23 lung
M14 melanoma = test system: M14 melanoma
HT29 colon = test system: HT29 colon
HOP-62 NSCLC = test system: HOP-62 NSCLC
KM12 colon = test system: KM12 colon
TK-10 renal = test system: TK-10 renal
NCI-H226 lung = test system: NCI-H226 lung
SNB-75 CNS = test system: SNB-75 CNS
RXF 393 renal = test system: RXF 393 renal
SK-MEL-28 melanoma = test system: SK-MEL-28 melanoma
SF-539 CNS = test system: SF-539 CNS
CAKI-1 renal = test system: CAKI-1 renal
MOLT-4 leukemia = test system: MOLT-4 leukemia
SF-295 CNS = test system: SF-295 CNS
BT-549 breast = test system: BT-549 breast
SK-MEL-5 melanoma = test system: SK-MEL-5 melanoma
MDA-MB-231 breast = test system: MDA-MB-231 breast
COLO 205 colon = test system: COLO 205 colon
A498 renal = test system: A498 renal
HCT-15 colon = test system: HCT-15 colon
K-562 leukemia = test system: K-562 leukemia
U251 CNS = test system: U251 CNS
SNB-19 CNS = test system: SNB-19 CNS
MCF7 breast = test system: MCF7 breast
ACHN renal = test system: ACHN renal
786-0 renal = test system: 786-0 renal
EKVX NSCLC = test system: EKVX NSCLC
UACC-62 melanoma = test system: UACC-62 melanoma
SW-620 colon = test system: SW-620 colon
T-47D breast = test system: T-47D breast
MALME-3M melanoma = test system: MALME-3M melanoma
RPMI-8226 leukemia = test system: RPMI-8226 leukemia
SK-MEL-2 melanoma = test system: SK-MEL-2 melanoma
HCC-2998 colon = test system: HCC-2998 colon
HL-60(TB) leukemia = test system: HL-60(TB) leukemia
DU-145 prostate = test system: DU-145 prostate
NCI/ADR-RES ovarian = test system: NCI/ADR-RES ovarian
OVCAR-5 ovarian = test system: OVCAR-5 ovarian
OVCAR-3 ovarian = test system: OVCAR-3 ovarian
LOX IMVI melanoma = test system: LOX IMVI melanoma
PC-3 prostate = test system: PC-3 prostate
OVCAR-4 ovarian = test system: OVCAR-4 ovarian
HOP-92 NSCLC = test system: HOP-92 NSCLC
UO-31 renal = test system: UO-31 renal
NCI-H460 lung = test system: NCI-H460 lung
HCT-116 colon = test system: HCT-116 colon
SR leukemia = test system: SR leukemia
NCI-H522 lung = test system: NCI-H522 lung
CCRF-CEM leukemia = test system: CCRF-CEM leukemia
UACC-257 melanoma = test system: UACC-257 melanoma
OVCAR-8 ovarian = test system: OVCAR-8 ovarian
IGROV1 ovarian = test system: IGROV1 ovarian
SN12C renal = test system: SN12C renal
SF-268 CNS = test system: SF-268 CNS

In the case of `COc1ccc(-c2cc(-c3ccc(Nc4ccnc5cc(C(F)(F)F)ccc45)cc3)nc(N)c2C#N)cc1`, the TGI (MDA-MB-435) is reported as > 100 µM, the TGI (A549 NSCLC) is reported as > 100 µM and the TGI (SK-OV-3 ovarian) is reported as > 100 µM. The TGI (NCI-H23 lung) was > 100 µM, the TGI (M14 melanoma) was > 100 µM and the TGI (HT29 colon) was > 100 µM. The TGI (HOP-62 NSCLC) was > 100 µM, the TGI (KM12 colon) was > 100 µM and the TGI (TK-10 renal) was > 100 µM. The TGI (NCI-H226 lung) was > 100 µM, the TGI (SNB-75 CNS) was 71.6 µM and the TGI (RXF 393 renal) was > 100 µM. The TGI (SK-MEL-28 melanoma) was > 100 µM, the TGI (SF-539 CNS) was > 100 µM and the TGI (CAKI-1 renal) was > 100 µM. For the same compound, the TGI (MOLT-4 leukemia) was > 100 µM, the TGI (SF-295 CNS) was > 100 µM and the TGI (BT-549 breast) was > 100 µM. For the same compound, the TGI (SK-MEL-5 melanoma) was > 100 µM, the TGI (MDA-MB-231 breast) was > 100 µM and the TGI (COLO 205 colon) was > 100 µM. For the same compound, the TGI (A498 renal) was > 100 µM, the TGI (HCT-15 colon) was > 100 µM and the TGI (K-562 leukemia) was > 100 µM. For the same compound, the TGI (U251 CNS) was > 100 µM, the TGI (SNB-19 CNS) was > 100 µM and the TGI (MCF7 breast) was > 100 µM. For the same compound, the TGI (ACHN renal) was > 100 µM, the TGI (786-0 renal) was > 100 µM and the TGI (EKVX NSCLC) was > 100 µM. For the same compound, the TGI (UACC-62 melanoma) was > 100 µM, the TGI (SW-620 colon) was > 100 µM and the TGI (T-47D breast) was > 100 µM. The TGI (MALME-3M melanoma) was > 100 µM, the TGI (RPMI-8226 leukemia) was > 100 µM and the TGI (SK-MEL-2 melanoma) was > 100 µM. The TGI (HCC-2998 colon) was > 100 µM, the TGI (HL-60(TB) leukemia) was > 100 µM and the TGI (DU-145 prostate) was > 100 µM. The TGI (NCI/ADR-RES ovarian) was > 100 µM, the TGI (OVCAR-5 ovarian) was > 100 µM and the TGI (OVCAR-3 ovarian) was 33.7 µM. For the same compound, the TGI (LOX IMVI melanoma) was > 100 µM, the TGI (PC-3 prostate) was > 100 µM and the TGI (OVCAR-4 ovarian) was > 100 µM. For the same compound, the TGI (HOP-92 NSCLC) was 90 µM, the TGI (UO-31 renal) was > 100 µM and the TGI (NCI-H460 lung) was > 100 µM. The TGI (HCT-116 colon) was 78.7 µM and the TGI (SR leukemia) was > 100 µM.

In the case of `Cc1c(C(N)=O)sc2c1c(=O)n(Cc1ccccc1)c1nnc(SCC(=O)Nc3ccc(Cl)cc3)n21`, the GI50 (MDA-MB-435) is reported as > 100 µM, the TGI (MDA-MB-435) is reported as > 100 µM and the GI50 (NCI-H522 lung) is reported as 4.12 µM. For the same compound, the TGI (NCI-H522 lung) was > 100 µM, the GI50 (SK-OV-3 ovarian) was 3.37 µM and the TGI (SK-OV-3 ovarian) was > 100 µM. For the same compound, the GI50 (NCI-H23 lung) was 2.78 µM, the TGI (NCI-H23 lung) was 10.7 µM and the GI50 (CCRF-CEM leukemia) was 25.1 µM. For the same compound, the TGI (CCRF-CEM leukemia) was > 100 µM, the GI50 (M14 melanoma) was 4.63 µM and the TGI (M14 melanoma) was > 100 µM. For the same compound, the GI50 (HT29 colon) was > 100 µM, the TGI (HT29 colon) was > 100 µM and the GI50 (HOP-62 NSCLC) was 3.71 µM. For the same compound, the TGI (HOP-62 NSCLC) was 15.5 µM, the GI50 (KM12 colon) was 15.5 µM and the TGI (KM12 colon) was > 100 µM. For the same compound, the GI50 (NCI-H226 lung) was 5.8 µM, the TGI (NCI-H226 lung) was 46.2 µM and the GI50 (UACC-257 melanoma) was 3.44 µM. The TGI (UACC-257 melanoma) was > 100 µM, the GI50 (SF-539 CNS) was 2.53 µM and the TGI (SF-539 CNS) was 6.33 µM. For the same compound, the GI50 (CAKI-1 renal) was > 100 µM, the TGI (CAKI-1 renal) was > 100 µM and the GI50 (MOLT-4 leukemia) was > 100 µM. For the same compound, the TGI (MOLT-4 leukemia) was > 100 µM, the GI50 (SF-295 CNS) was 4.71 µM and the TGI (SF-295 CNS) was 73.8 µM. The GI50 (OVCAR-8 ovarian) was 4.03 µM, the TGI (OVCAR-8 ovarian) was > 100 µM and the GI50 (BT-549 breast) was 3.65 µM. The TGI (BT-549 breast) was > 100 µM, the GI50 (SK-MEL-5 melanoma) was 4.89 µM and the TGI (SK-MEL-5 melanoma) was 24 µM. For the same compound, the GI50 (MDA-MB-231 breast) was 3.81 µM, the TGI (MDA-MB-231 breast) was 19.4 µM and the GI50 (COLO 205 colon) was 6.99 µM. For the same compound, the TGI (COLO 205 colon) was > 100 µM, the GI50 (A498 renal) was 2.51 µM and the TGI (A498 renal) was > 100 µM. The GI50 (HCT-15 colon) was > 100 µM, the TGI (HCT-15 colon) was > 100 µM and the GI50 (K-562 leukemia) was 12.6 µM. The TGI (K-562 leukemia) was > 100 µM, the GI50 (U251 CNS) was 4.14 µM and the TGI (U251 CNS) was 19.5 µM. For the same compound, the GI50 (SNB-19 CNS) was 63.5 µM, the TGI (SNB-19 CNS) was > 100 µM and the GI50 (MCF7 breast) was 6.61 µM. The TGI (MCF7 breast) was > 100 µM, the GI50 (ACHN renal) was > 100 µM and the TGI (ACHN renal) was > 100 µM. For the same compound, the GI50 (786-0 renal) was 2.46 µM, the TGI (786-0 renal) was 7.78 µM and the GI50 (EKVX NSCLC) was 18.1 µM. For the same compound, the TGI (EKVX NSCLC) was > 100 µM, the GI50 (UACC-62 melanoma) was 9.26 µM and the TGI (UACC-62 melanoma) was > 100 µM. The GI50 (SW-620 colon) was > 100 µM, the TGI (SW-620 colon) was > 100 µM and the GI50 (T-47D breast) was 3.52 µM. For the same compound, the TGI (T-47D breast) was 15.1 µM, the GI50 (SK-MEL-2 melanoma) was > 100 µM and the TGI (SK-MEL-2 melanoma) was > 100 µM. The GI50 (HCC-2998 colon) was 5.56 µM, the TGI (HCC-2998 colon) was > 100 µM and the GI50 (HL-60(TB) leukemia) was > 100 µM. For the same compound, the TGI (HL-60(TB) leukemia) was > 100 µM, the GI50 (IGROV1 ovarian) was 28 µM and the TGI (IGROV1 ovarian) was > 100 µM. For the same compound, the GI50 (DU-145 prostate) was > 100 µM, the TGI (DU-145 prostate) was > 100 µM and the GI50 (NCI/ADR-RES ovarian) was > 100 µM. The TGI (NCI/ADR-RES ovarian) was > 100 µM, the GI50 (SN12C renal) was > 100 µM and the TGI (SN12C renal) was > 100 µM. For the same compound, the GI50 (OVCAR-5 ovarian) was > 100 µM, the TGI (OVCAR-5 ovarian) was > 100 µM and the GI50 (LOX IMVI melanoma) was 5.45 µM. For the same compound, the TGI (LOX IMVI melanoma) was > 100 µM, the GI50 (PC-3 prostate) was 3.3 µM and the TGI (PC-3 prostate) was > 100 µM. The GI50 (SF-268 CNS) was 8.05 µM, the TGI (SF-268 CNS) was > 100 µM and the GI50 (UO-31 renal) was > 100 µM. The TGI (UO-31 renal) was > 100 µM, the GI50 (NCI-H460 lung) was 3.28 µM and the TGI (NCI-H460 lung) was > 100 µM. It also gave a GI50 (HCT-116 colon) of 1.95 µM, a TGI (HCT-116 colon) of 4.85 µM and a GI50 (SR leukemia) of 3.19 µM. It also gave a TGI (SR leukemia) of 14 µM.
